The values that follow come from patent US5707798A, “Identification of ligands by selective amplification of cells transfected with receptors” (priority 1994, dated 1998).

A word on the EC50: it is the midpoint of the concentration-response curve. As a reminder, the Ki is a measure of affinity in units of concentration, obtained from inhibition or displacement.

Assay [1] deals with T1, alpha 2 C10 adrenergic receptor (Homo sapiens, UniProt P08913).
T1 construct: expressed in transfected cells; host or cells: NIH 3T3 (mouse fibroblasts)
T1 sequence (P08913 1-465): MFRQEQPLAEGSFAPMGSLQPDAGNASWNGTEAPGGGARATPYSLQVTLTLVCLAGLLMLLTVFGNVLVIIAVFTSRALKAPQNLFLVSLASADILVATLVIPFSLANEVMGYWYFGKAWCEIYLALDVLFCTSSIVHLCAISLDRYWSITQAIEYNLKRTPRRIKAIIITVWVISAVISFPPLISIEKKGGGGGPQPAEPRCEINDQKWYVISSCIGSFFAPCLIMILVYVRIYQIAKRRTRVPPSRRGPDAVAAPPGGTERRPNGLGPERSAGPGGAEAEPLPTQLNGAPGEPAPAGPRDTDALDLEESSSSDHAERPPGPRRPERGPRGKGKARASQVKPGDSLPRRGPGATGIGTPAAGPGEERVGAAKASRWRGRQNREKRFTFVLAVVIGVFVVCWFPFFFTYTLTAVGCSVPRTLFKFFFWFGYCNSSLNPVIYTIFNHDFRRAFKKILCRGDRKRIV
It counts as cell-based. Particulars: α2-C10, Table 3.

Assay [2] concerns the target T2, alpha 2 C4 adrenergic receptor (Homo sapiens, UniProt P18825).
T2 construct: expressed in transfected cells; host or cells: NIH 3T3 (mouse fibroblasts)
T2 sequence (P18825 1-462): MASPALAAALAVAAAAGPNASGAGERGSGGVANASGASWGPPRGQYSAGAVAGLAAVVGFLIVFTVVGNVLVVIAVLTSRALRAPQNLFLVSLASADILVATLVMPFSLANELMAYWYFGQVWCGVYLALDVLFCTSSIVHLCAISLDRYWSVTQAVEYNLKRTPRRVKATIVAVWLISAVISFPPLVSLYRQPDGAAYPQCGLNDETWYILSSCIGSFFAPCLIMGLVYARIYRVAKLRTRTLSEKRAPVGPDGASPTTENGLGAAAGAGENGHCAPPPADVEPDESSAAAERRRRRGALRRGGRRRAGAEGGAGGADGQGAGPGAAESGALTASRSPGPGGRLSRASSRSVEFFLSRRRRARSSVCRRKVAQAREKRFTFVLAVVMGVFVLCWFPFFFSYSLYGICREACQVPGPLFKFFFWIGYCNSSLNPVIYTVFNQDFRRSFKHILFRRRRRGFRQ
The format is cell-based. The settings on record: α2-C4, Table 3.

Assay [3] addresses T3, alpha 2 C2 adrenergic receptor (Homo sapiens, UniProt P18089).
T3 sequence (P18089 1-450): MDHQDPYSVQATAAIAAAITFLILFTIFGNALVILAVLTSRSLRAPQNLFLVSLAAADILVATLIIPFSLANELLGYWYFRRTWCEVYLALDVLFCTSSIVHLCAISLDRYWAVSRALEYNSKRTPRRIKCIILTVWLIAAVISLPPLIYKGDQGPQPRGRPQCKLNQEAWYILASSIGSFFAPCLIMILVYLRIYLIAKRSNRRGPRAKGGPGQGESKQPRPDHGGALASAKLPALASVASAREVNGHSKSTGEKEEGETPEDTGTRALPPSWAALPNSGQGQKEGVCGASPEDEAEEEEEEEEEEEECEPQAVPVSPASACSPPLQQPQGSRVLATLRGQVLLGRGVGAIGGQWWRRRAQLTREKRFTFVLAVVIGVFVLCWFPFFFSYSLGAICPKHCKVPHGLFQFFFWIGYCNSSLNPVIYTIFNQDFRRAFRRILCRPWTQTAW
The format is cell-based. Particulars: α2-C2, Table 3.

A further assay addresses T4, EP3 prostanoid receptor (Homo sapiens, UniProt P43115).
T4 construct: expressed in transfected cells; host or cells: NIH 3T3 (mouse fibroblasts, ATCC CRL 1658)
T4 sequence (P43115 1-390): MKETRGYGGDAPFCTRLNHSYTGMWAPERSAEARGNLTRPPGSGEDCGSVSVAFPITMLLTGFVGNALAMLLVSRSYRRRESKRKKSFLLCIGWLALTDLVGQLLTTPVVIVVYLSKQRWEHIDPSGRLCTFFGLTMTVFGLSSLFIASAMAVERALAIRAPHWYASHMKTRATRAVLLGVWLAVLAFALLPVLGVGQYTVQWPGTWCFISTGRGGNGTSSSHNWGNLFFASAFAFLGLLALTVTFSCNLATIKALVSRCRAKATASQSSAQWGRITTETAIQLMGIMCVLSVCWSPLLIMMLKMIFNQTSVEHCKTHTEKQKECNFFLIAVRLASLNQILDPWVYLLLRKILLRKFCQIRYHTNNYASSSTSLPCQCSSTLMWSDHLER
The format is cell-based. Particulars: EP3, Table 2; read-out: Ligand EC50.

Assay [4] deals with certain alpha adrenergic receptors. The settings on record: cited from earlier work.
The test system of assay [5] is Muscarinic acetylcholine receptors that stimulate phospholipase c (m1, m3, m5). Particulars: cited from earlier work.
The target in assay [6] is T5, m5 muscarinic receptor (Homo sapiens, UniProt P08912).
T5 construct: expressed in transfected cells; host or cells: NIH 3T3 (mouse fibroblasts)
T5 sequence (P08912 1-532): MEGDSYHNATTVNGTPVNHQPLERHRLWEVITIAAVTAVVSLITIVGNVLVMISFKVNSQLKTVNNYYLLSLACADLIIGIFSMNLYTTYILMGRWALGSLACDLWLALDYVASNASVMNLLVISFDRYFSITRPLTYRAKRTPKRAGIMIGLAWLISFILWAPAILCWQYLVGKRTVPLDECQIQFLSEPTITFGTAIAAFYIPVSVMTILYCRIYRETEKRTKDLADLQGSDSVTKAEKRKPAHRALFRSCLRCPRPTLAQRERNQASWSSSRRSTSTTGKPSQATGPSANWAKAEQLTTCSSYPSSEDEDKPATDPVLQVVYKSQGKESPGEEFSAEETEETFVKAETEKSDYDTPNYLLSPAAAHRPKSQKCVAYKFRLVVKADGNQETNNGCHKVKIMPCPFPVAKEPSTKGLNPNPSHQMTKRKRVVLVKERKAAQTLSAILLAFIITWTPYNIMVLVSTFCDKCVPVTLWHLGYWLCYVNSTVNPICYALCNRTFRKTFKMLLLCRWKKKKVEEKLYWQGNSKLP
The format is cell-based.

The next assay relates to NIH 3T3 cells. Kind of assay: Amplification response in the absence of the indicated target receptor. The format is cell-based, mouse. The settings on record: absence of the ligand's target receptor. The protocol:
FIG. 16 illustrates the maximal ligand-induced responses of the indicated receptors, as assayed using cotransfected cultures using a Multiple Receptor Format similar to that described in FIG. 11. […] Cells were incubated in wells of a 96 well plate for 4 days with each ligand. Maximal responses were calculated by fitting the data to a model of a single mass-action site.

The target in assay [7] is T6, m2 muscarinic receptor (Homo sapiens, UniProt P08172).
T6 construct: expressed in transfected cells; host or cells: NIH 3T3 (mouse fibroblasts)
T6 sequence (P08172 1-466): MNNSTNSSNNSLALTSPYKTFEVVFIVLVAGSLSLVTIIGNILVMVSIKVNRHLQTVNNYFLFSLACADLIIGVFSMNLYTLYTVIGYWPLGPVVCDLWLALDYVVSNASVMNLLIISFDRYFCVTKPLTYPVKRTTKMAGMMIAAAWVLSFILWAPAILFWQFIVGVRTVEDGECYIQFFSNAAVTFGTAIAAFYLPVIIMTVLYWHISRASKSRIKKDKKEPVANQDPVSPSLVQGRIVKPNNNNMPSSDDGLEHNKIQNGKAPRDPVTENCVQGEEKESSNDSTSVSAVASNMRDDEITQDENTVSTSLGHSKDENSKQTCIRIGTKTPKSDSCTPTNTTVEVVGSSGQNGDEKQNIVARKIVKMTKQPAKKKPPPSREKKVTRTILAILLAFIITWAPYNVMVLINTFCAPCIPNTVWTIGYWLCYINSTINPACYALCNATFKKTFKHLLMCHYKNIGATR
Kind of assay: cell-based. The format is cell-based.

For assay [8], the target named is T5, m5 muscarinic receptor. Kind of assay: Focus induction in NIH 3T3 cells transfected with m5 DNA. The format is cell-based. Particulars: low concentrations.
For assay [9], the target named is T6, m2 muscarinic receptor. Nature of the assay: β-galactosidase levels, m2 receptor in the absence of expressed G-protein. The format is cell-based.
A further assay concerns the target T7, m1 muscarinic receptor (Homo sapiens, UniProt P11229).
T7 sequence (P11229 1-460): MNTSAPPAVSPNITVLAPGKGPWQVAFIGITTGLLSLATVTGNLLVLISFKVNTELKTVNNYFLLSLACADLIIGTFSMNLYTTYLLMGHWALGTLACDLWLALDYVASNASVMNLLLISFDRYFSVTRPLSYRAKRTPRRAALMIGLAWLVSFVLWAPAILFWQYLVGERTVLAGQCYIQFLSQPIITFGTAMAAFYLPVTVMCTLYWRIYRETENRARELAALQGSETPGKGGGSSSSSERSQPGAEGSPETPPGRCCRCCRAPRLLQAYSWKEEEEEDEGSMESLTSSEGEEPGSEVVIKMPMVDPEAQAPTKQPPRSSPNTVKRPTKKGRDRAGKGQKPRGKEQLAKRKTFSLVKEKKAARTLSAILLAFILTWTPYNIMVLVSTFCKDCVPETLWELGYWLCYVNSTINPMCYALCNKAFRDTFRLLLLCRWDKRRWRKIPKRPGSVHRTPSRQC
Kind of assay: cell-based.

In another assay the target is m3 muscarinic receptor (Homo sapiens, UniProt P20309). Kind of assay: cell-based.
Chain of m3 muscarinic receptor (P20309 whole entry): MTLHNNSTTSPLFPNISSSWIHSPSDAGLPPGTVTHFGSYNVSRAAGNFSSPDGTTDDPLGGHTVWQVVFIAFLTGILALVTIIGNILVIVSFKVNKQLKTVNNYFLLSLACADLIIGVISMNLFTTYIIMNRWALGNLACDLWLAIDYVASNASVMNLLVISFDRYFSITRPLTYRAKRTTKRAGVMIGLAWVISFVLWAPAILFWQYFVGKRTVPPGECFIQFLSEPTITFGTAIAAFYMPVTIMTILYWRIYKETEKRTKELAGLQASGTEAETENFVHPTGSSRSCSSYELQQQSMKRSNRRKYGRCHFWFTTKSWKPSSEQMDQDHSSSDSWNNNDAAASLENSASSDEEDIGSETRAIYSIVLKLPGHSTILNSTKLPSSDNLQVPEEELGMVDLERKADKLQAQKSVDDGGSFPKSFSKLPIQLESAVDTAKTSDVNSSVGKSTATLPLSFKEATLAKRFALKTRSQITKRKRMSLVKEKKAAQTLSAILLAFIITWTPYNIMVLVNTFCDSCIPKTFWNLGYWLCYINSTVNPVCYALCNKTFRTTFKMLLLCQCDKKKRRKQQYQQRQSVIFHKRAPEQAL
The target of assay [10] is T5, m5 muscarinic receptor. The format is cell-based. This is another data set of the same source.
The next assay deals with T8, m4 muscarinic receptor (Homo sapiens, UniProt P08173).
T8 sequence (P08173 1-479): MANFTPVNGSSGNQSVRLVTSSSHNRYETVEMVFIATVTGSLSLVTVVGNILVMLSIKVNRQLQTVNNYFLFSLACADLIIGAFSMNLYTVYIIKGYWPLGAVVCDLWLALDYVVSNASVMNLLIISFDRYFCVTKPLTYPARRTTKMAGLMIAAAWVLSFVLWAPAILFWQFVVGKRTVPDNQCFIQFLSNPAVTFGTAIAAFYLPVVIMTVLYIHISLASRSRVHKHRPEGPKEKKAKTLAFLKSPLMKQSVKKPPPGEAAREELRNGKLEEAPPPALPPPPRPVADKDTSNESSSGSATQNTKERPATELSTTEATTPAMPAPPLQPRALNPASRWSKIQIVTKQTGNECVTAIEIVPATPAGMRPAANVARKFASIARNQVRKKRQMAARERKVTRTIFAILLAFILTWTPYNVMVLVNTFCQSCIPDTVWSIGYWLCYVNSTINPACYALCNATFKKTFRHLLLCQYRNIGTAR
Kind of assay: cell-based.

The target of assay [11] is T6, m2 muscarinic receptor. Kind of assay: cell-based.
The target of the next assay is trk A receptor. The settings on record: Table 2.
A further assay concerns the target trk C receptor. More on the design: Rmax: key to the marks not given beside the values.
Assay [12] has as its system trk A receptors (NGF receptor). The settings on record: only when transfected with trk A; cited from earlier work.

`C=CCN1CCc2nc(N)sc2CC1` [BHT 920]: the EC50 in [1] and in assay [2] was greater than 10000 nM each time.
As to `CCN1CCc2nc(N)oc2CC1` [BHT 933], the EC50 in assay [3] and in [1] was greater than 10000 nM in each case.
Consider `O=C(O)CCCCCC[C@H]1C(=O)CC[C@@H]1/C=C/[C@@H](O)COc1ccccc1` [MB28767], for which the EC50 on EP3 prostanoid receptor worked out at 270 ± 190 nM.
For the compound `NC[C@H](O)c1ccc(O)c(O)c1` [Norepinephrine], the growth stimulation result in assay [4] is on record as “stimulates”. For the same compound, in assay [2] (relative to other ligands at the receptor), the “Max Response” value was “+”.
Consider `CN1[C@@H]2CC[C@H]1C[C@@H](OC(=O)C(CO)c1ccccc1)C2` (stereo partly shown) [atropine], for which the “block of agonist-stimulated phospholipase c, mitogenesis and foci” value in assay [5] is “blocked”.
With `C[N+](C)(C)CCOC(N)=O` [carbachol], the “time to plateau of β-galactosidase induction” value at m5 muscarinic receptor [6] (m5) and on m2 muscarinic receptor [7] (m2/q-i5) was “about five” throughout. Further, the “induction of β-galactosidase levels” value at m5 muscarinic receptor [6] (m5, time-course) is “significantly induce β-galactosidase levels”; on m2 muscarinic receptor [7] (m2/q-i5, time-course) it was “significantly induce β-galactosidase levels”. In the assay with NIH 3T3 cells, the induction of responses entry is given as “unable to induce responses”. The focus response entry at m5 muscarinic receptor [8] is recorded as “robust ligand-dependent responses”. Further, at m2 muscarinic receptor [9], the “effect on β-galactosidase levels” value is “no effect on β-galactosidase levels”.
`O[Si](CCCN1CCCCC1)(c1ccc(F)cc1)C1CCCCC1` (stereo not shown) [p-F-HHSiD]: the inhibition constant Ki on m1 muscarinic receptor is 251 nM; on m3 muscarinic receptor, 31.6 nM; at m5 muscarinic receptor [10] it was 79.4 nM; at m4 muscarinic receptor it was 50.1 nM; on m2 muscarinic receptor [11], 501 nM.
Regarding NT3: related neutrotrophic factor NT3, the entries for the “Ligand EC50” value at trk A receptor and on trk C receptor (Table 2) were greater than 1 µg/mL and 0.0024 ± 0.0011 µg/mL, respectively. In addition, the Rmax entry in the assay on trk C receptor (relative to other clones) is listed as “++++”.
For the compound Nerve growth factor [NGF], in assay [12], the growth stimulation result is “stimulates growth”. For the same compound, in the assay on trk C receptor (data not shown), the “induction of amplification responses” value was “not able to induce amplification responses”.
